In the experiment the test system is C. elegans.
[1] abbreviates: Table S2, C. elegans SS assay, 110 μM, 0 h, averages of 4 data points.
Where [2] appears, read: Table S2, C. elegans SS assay, 110 μM, 24 h, averages of 4 data points.

Values joined by “and” are separate entries in the source; they are usually repeats but may differ in a detail not shown here. Identical values can stand only once. Like-named read-outs stand apart in the source and are kept apart here. *1 amine or outer side, *2 acyl side, *3 side chain or, on linkers, in order; H or OH if unused. Where a SMILES comes first, the peptide text is derived from it. Bridges are numbered along the chain shown (N, C = ends). [ ]: non-standard residue; d: D form. The star is where a group is joined. Orn(4R-OH,5R-OH) = O=C([C@H](C[C@@H](O)[C@@H](O)N[*:3])N[*:1])[*:2]; Tetradecanoyl(10R,12S-Me2) = CC[C@H](C)C[C@H](C)CCCCCCCCC(=O)*; hTyr(3S-OH,4S-OH) = N[C@H](C(=O)O)[C@H](O)[C@@H](O)c1ccc(O)cc1; Gln(3R-OH) = NC(=O)C[C@@H](O)[C@H](N)C(=O)O; Pro(3S-OH) = O=C(O)[C@H]1NCC[C@@H]1O; Hyp = O=C(O)[C@@H]1C[C@@H](O)CN1

For the molecule `CC1=C2[C@@H](OC1=O)[C@H](O)[C@]13[C@H]4C[C@@H](C(C)(C)C)[C@]15[C@@H](OC(=O)[C@@H]5O)O[C@@]23C(=O)O4` [Ginkgolide K], the “Percentage of motility inhibition 0 h” value under setting [1] is recorded as 0%. For the same molecule, the “Percentage of motility inhibition 24 h” value under setting [2] is reported as 2%. On to Notoginsenoside Fe, for which, under setting [1], the “Percentage of motility inhibition 0 h” value is 0%. For the same molecule, the “Percentage of motility inhibition 24 h” value under setting [2] was 0%. For the molecule Astragaloside I, the “Percentage of motility inhibition 0 h” value under setting [1] is recorded as 13%. Under setting [2], the “Percentage of motility inhibition 24 h” value was determined as 23%.

For `CC1(C)OC2CC(=O)OCC23C1CC(=O)C1(C)C2=CC(=O)OC(c4ccoc4)C2(C)CCC13` (stereo not drawn) [Deoxylimonin], under setting [1], the “Percentage of motility inhibition 0 h” value is 9%. Under setting [2], the “Percentage of motility inhibition 24 h” value came to 50%. For the molecule `CN[C@@H](Cc1c[nH]c2ccccc12)C(=O)O` [L‐(+)‐Abrine], the “Percentage of motility inhibition 0 h” value under setting [1] was 0%. Besides, the “Percentage of motility inhibition 24 h” value under setting [2] was determined as 0%. As to (‐)‐Gallocatechin gallate, under setting [1], the “Percentage of motility inhibition 0 h” value is on record as 60%. The “Percentage of motility inhibition 24 h” value under setting [2] turned out to be 5%. On to Theaflavin 3,3'‐digallate, for which the “Percentage of motility inhibition 0 h” value under setting [1] came to 0%. Further, the “Percentage of motility inhibition 24 h” value under setting [2] is 2%. For the molecule `COc1cc(O)c2c(c1)O[C@H](c1cc(O)cc(O)c1)CC2=O` [Blumeatin], the “Percentage of motility inhibition 0 h” value under setting [1] was found to be 21%. Besides, the “Percentage of motility inhibition 24 h” value under setting [2] is on record as 11%. For `C/C=C(/C)C(=O)O[C@H]1C(C)=C[C@]23C(=O)[C@@H](C=C4COC(C)(C)O[C@H]4[C@]12O)[C@H]1[C@@H](C[C@H]3C)C1(C)C` [Ingenol-5,20-acetonide-3-O-angelate] the same measures were 0% and 0%. For `CO/N=C(\C(=O)N[C@@H]1C(=O)N2C(C(=O)O)=C(Cn3ccc(=N)n3CCO)CS[C@H]12)c1csc(N)n1.O=S(=O)(O)O` [Cefoselis (sulfate)] the same measures were 8% and 0%.

As for `Cc1c(O)c(C)c2c(c1O)C(=O)[C@H](Cc1ccc3c(c1)OCO3)CO2` [Methylophiopogonanone A], the “Percentage of motility inhibition 0 h” value under setting [1] is given as 21%. The “Percentage of motility inhibition 24 h” value under setting [2] worked out at 0%. With `COC1=C[C@@H]2[C@@H]3Cc4ccc(OC)c(O)c4[C@]2(CCN3C)CC1=O` [Sinomenine], the “Percentage of motility inhibition 24 h” value under setting [2] is 3% and 0%. On to `O.O=C1C=CC[C@@H]2[C@H]3CCCN4CCC[C@@H](CN12)[C@@H]34` [Sophocarpine (monohydrate)], for which the “Percentage of motility inhibition 0 h” value under setting [1] is 0%. Besides, the “Percentage of motility inhibition 24 h” value under setting [2] is on record as 0%. `CC1=CCC2CC1C2(C)C` (stereo not drawn) [(-)-α-Pinene]: the “Percentage of motility inhibition 0 h” value under setting [1] is listed as 0%. For the same molecule, under setting [2], the “Percentage of motility inhibition 24 h” value amounted to 6%. Taken in the same sequence, the figures for `C/C=C/C1=C(C(=O)O)N2C(=O)[C@@H](NC(=O)[C@H](N)c3ccc(O)cc3)[C@H]2SC1.O` [Cefprozil (monohydrate)] were 12% and 14%. Taken in the same sequence, the figures for `C[C@H](CCC(=O)NCC(=O)O)[C@H]1CC[C@H]2[C@@H]3CC[C@@H]4C[C@H](OS(=O)(=O)O)CC[C@]4(C)[C@H]3CC[C@]12C` [Glycolithocholic acid 3-sulfate] were 13% and 33%. Taken in the same sequence, the figures for `O=C(O)[C@H]1O[C@@H](Oc2cc(O)c3c(=O)cc(-c4ccc(O)c(O)c4)oc3c2)[C@H](O)[C@@H](O)[C@@H]1O` [Luteolin 7‐O‐glucuronide] were 22% and 45%. `COc1cc(/C=C/C(=O)NCCc2ccc(O)cc2)ccc1O` [N‐trans‐Feruloyltyramine]: the “Percentage of motility inhibition 0 h” value under setting [1] worked out at 5%. Moreover, the “Percentage of motility inhibition 24 h” value under setting [2] is on record as 16%.

For `CC[C@H](C)C[C@H](C)CCCCCCCCC(=O)N[C@H]1C[C@@H](O)[C@@H](O)NC(=O)[C@@H]2[C@@H](O)CCN2C(=O)[C@H]([C@H](O)CC(N)=O)NC(=O)[C@H]([C@H](O)[C@@H](O)c2ccc(O)cc2)NC(=O)[C@@H]2C[C@@H](O)CN2C(=O)[C@H]([C@@H](C)O)NC1=O` [Pneumocandin B0] ({Tetradecanoyl(10R,12S-Me2)}-[Orn(4R-OH,5R-OH)]T[Hyp][hTyr(3S-OH,4S-OH)][Gln(3R-OH)][Pro(3S-OH)]; lactam 1-C), the “Percentage of motility inhibition 0 h” value under setting [1] is on record as 0%. The “Percentage of motility inhibition 24 h” value under setting [2] amounted to 0%. As for `C=C(C)[C@@H]1CC[C@]2(C)[C@H](CC=C3[C@@H]4[C@@H](C)[C@H](C)CC[C@]4(C)CC[C@]32C)[C@@]1(C)CCC(=O)O` [Roburic acid], the “Percentage of motility inhibition 0 h” value under setting [1] amounted to 11%. Under setting [2], the “Percentage of motility inhibition 24 h” value is 15%. Regarding `C=C(C)[C@@H]1CC[C@]2(C(=O)O)CC[C@]3(C)[C@H](CC[C@@H]4[C@@]5(C)CCC(=O)C(C)(C)[C@@H]5CC[C@]43C)[C@@H]12` [Betulonic acid], under setting [1], the “Percentage of motility inhibition 0 h” value came out at 24%. The “Percentage of motility inhibition 24 h” value under setting [2] is 26%.

Take `CC1(C)S[C@@H]2[C@H](NC(=O)[C@H](NC(=O)N3CCNC3=O)c3ccccc3)C(=O)N2[C@H]1C(=O)[O-].[Na+]` [Azlocillin (sodium salt)]: the “Percentage of motility inhibition 0 h” value under setting [1] was found to be 31%. Further, under setting [2], the “Percentage of motility inhibition 24 h” value was found to be 0%. Take `C[C@@H]1O[C@@H](O[C@H]2C(=O)c3c(O)cc(O)cc3O[C@H]2c2ccc(O)c(O)c2)[C@H](O)[C@H](O)[C@H]1O` [Neoisoastilbin]: under setting [1], the “Percentage of motility inhibition 0 h” value came out at 0%. Under setting [2], the “Percentage of motility inhibition 24 h” value was 0%.

Consider `C=CC/C(=N\OS(=O)(=O)[O-])S[C@@H]1O[C@H](CO)[C@@H](O)[C@H](O)[C@H]1O.O.[K+]` [Sinigrin (hydrate)], for which, under setting [1], the “Percentage of motility inhibition 0 h” value turned out to be 0%. Also, the “Percentage of motility inhibition 24 h” value under setting [2] turned out to be 19%. Taken in the same sequence, the figures for `Cc1ccc(Nc2cc(-c3cccc(N4C(=O)c5ccccc5C4=O)c3)ncn2)cc1NS(C)(=O)=O` [CDK9‐IN‐1] were 54% and 3%.

Take `O=C([O-])[C@H](O)[C@@H](O)[C@H](O)[C@H](O)CO.[Na+]` [Gluconate (sodium)]: the “Percentage of motility inhibition 0 h” value under setting [1] was determined as 15%. The “Percentage of motility inhibition 24 h” value under setting [2] is 3%. With Dictamine, for the setting “110 µM”, the “Percentage of motility inhibition 0 h” value is on record as 0% and the “Percentage of motility inhibition 24 h” value came to 20%.

(‐)‐Alkannin: the “Percentage of motility inhibition 0 h” value under setting [1] was 12%. Further, under setting [2], the “Percentage of motility inhibition 24 h” value is given as 7%. Regarding `CC1(C)[C@@H](O[C@H]2O[C@H](C(=O)O)[C@@H](O)[C@H](O)[C@H]2O[C@@H]2O[C@H](C(=O)O)[C@@H](O)[C@H](O)[C@H]2O)CC[C@]2(C)[C@H]3C(=O)C=C4[C@@H]5C[C@@](C)(C(=O)O)CC[C@]5(C)CC[C@@]4(C)[C@]3(C)CC[C@@H]12.N.N` [Diammonium Glycyrrhizinate], the “Percentage of motility inhibition 24 h” value under setting [2] was 4% and 11%. Regarding `O=C1Cc2cc(O)ccc2N1` [5‐Hydroxyoxindole], the “Percentage of motility inhibition 0 h” value under setting [1] was 15%. For the same molecule, the “Percentage of motility inhibition 24 h” value under setting [2] is 10%. For `Nc1ncnc2c1ncn2[C@@H]1O[C@H](COP(=O)(O)O)[C@@H](O)[C@H]1O` [Adenosine monophosphate] the same measures were 8% and 6%.

Values taken from publication PMC11855827, “High-Throughput Screening of Five Compound Libraries for Anthelmintic Activity and Toxicity Leads to the Discovery of Two Flavonoid Compounds” (International Journal of Molecular Sciences, 2025).
